{"source": "patent US8058243B2", "about": "“Method for treating a brain cancer with ifenprodil” (HSC Research and Development Limited Partnership, priority 2006, dated 2011)", "test_system": "murine neural precursor cells (neurosphere cultures)", "experiment": "HTS of LOPAC library against secondary neurosphere cultures, MTT proliferation assay at 3 μM, day 7 (z score, P value)", "assay_type": "cell-based, mouse", "key": {"[1]": {"details": "LOPAC primary screen, neurosphere MTT proliferation, 3 μM, day 7"}, "[2]": {"details": "yes/no: significantly inhibited neurosphere proliferation (P<0.01) in the primary screen"}, "[3]": {"details": "LOPAC library screen, 3 μM, MTT, secondary neurosphere cultures, day 7"}, "[4]": {"details": "LOPAC screen, neurosphere MTT proliferation, 3 μM, day 7"}, "[5]": {"details": "yes/no: significantly inhibited neurosphere proliferation (P<0.01) in primary screen"}, "[6]": {"details": "yes = significantly inhibited neurosphere proliferation (P<0.01) in the primary screen"}, "[7]": {"details": "yes/no: significantly inhibited neurosphere proliferation in primary screen"}, "[8]": {"details": "LOPAC library screen, 3 μM, MTT, neurosphere cultures"}}, "note": "Where a name gives a salt, the structure may show the parent alone. Read-outs that look alike come from different tables or passages of the source.", "data": [{"smiles": "CCN(CC)CCNC(=O)c1ccc(NC(C)=O)cc1.Cl", "note": "[N-Acetylprocainamide hydrochloride]", "values": [{"measurement": "Z Score", "result": "−4.557"}, {"measurement": "Z score", "setting": "[1]", "result": "−4.557"}, {"measurement": "Activity", "setting": "[2]", "result": "yes"}]}, {"smiles": "CC(=O)NCCc1c[nH]c2ccccc12", "note": "[N-Acetyltryptamine]", "values": [{"measurement": "Z Score", "result": 1.02}, {"measurement": "Z score", "setting": "primary LOPAC screen, 3 μM, MTT, neurosphere proliferation", "result": 1.020}, {"measurement": "Activity", "setting": "yes/no: significantly inhibited neurosphere proliferation in the primary screen", "result": "no"}]}, {"smiles": "CC(=O)NBr", "note": "[N-Bromoacetamide]", "values": [{"measurement": "Z Score", "setting": "[3]", "result": "−1.362"}, {"measurement": "Z score", "setting": "[4]", "result": "−1.362"}, {"measurement": "Activity", "setting": "[5]", "result": "no"}]}, {"smiles": "CCN1C(=O)C=CC1=O", "note": "[N-Ethylmaleimide]", "values": [{"measurement": "Z Score", "result": "−0.02816"}, {"measurement": "Z score", "setting": "[1]", "result": "−0.028"}, {"measurement": "Activity", "setting": "[5]", "result": "no"}]}, {"smiles": "CN1C[C@H](O)[C@@H](O)[C@H](O)[C@H]1CO", "note": "[N-Methyl-1-deoxynojirimycin]", "values": [{"measurement": "Z Score", "result": "−1.335"}, {"measurement": "Z score", "setting": "[1]", "result": "−1.335"}, {"measurement": "Activity", "setting": "[6]", "result": "no"}]}, {"smiles": "CN[C@H](CC(=O)O)C(=O)O", "note": "[N-Methyl-D-aspartic acid]", "values": [{"measurement": "Z Score", "result": "−1.86"}, {"measurement": "Z score", "setting": "[1]", "result": "−1.860"}, {"measurement": "Activity", "setting": "[6]", "result": "no"}]}, {"smiles": "CNC(=O)c1cc2c(cn1)[nH]c1ccccc12", "note": "[N-Methyl-beta-carboline-3-carboxamide]", "values": [{"measurement": "Z Score", "setting": "168 h, 3 µM", "result": 0.6988}, {"measurement": "Z score", "setting": "168 h, 3 µM", "result": 0.699}, {"measurement": "Activity", "setting": "[5]", "result": "no"}]}, {"smiles": "CNCCc1ccc(O)c(O)c1.Cl", "note": "[N-Methyldopamine hydrochloride]", "values": [{"measurement": "Z Score", "setting": "[3]", "result": "−1.219"}, {"measurement": "Z score", "setting": "[4]", "result": "−1.219"}, {"measurement": "Activity", "setting": "[5]", "result": "no"}]}, {"smiles": "CCCCCCCC/C=C\\CCCCCCCC(=O)NCCc1ccc(O)c(O)c1", "note": "[N-Oleoyldopamine]", "values": [{"measurement": "Z Score", "setting": "168 h, 3 µM", "result": 0.4633}, {"measurement": "Z score", "setting": "168 h, 3 µM", "result": 0.463}, {"measurement": "Activity", "setting": "[7]", "result": "no"}]}, {"smiles": "CCCCCCCC/C=C\\CCCCCCCC(=O)NCCO", "note": "[N-Oleoylethanolamine]", "values": [{"measurement": "Z Score", "setting": "168 h, 3 µM", "result": "−0.4116"}, {"measurement": "Z score", "setting": "168 h, 3 µM", "result": "−0.412"}, {"measurement": "Activity", "setting": "[7]", "result": "no"}]}, {"smiles": "O=C(O)c1ccccc1Nc1ccccc1", "note": "[N-Phenylanthranilic acid]", "values": [{"measurement": "Z Score", "setting": "[3]", "result": "−1.61"}, {"measurement": "Z score", "setting": "[1]", "result": "−1.610"}, {"measurement": "Activity", "setting": "[7]", "result": "no"}]}, {"smiles": "O=C(O)CCC(=O)N1CCC[C@H]1C(=O)O", "note": "[N-Succinyl-L-proline]", "values": [{"measurement": "Z Score", "setting": "[8]", "result": 0.7246}, {"measurement": "Z score", "setting": "[1]", "result": 0.725}, {"measurement": "Activity", "setting": "[7]", "result": "no"}]}, {"smiles": "CCCCCCCCC(=O)NCc1ccc(O)c(OC)c1", "note": "[N-Vanillylnonanamide]", "values": [{"measurement": "Z Score", "setting": "[3]", "result": "−9.029"}, {"measurement": "Z score", "setting": "[1]", "result": "−9.029"}, {"measurement": "Activity", "setting": "[2]", "result": "yes"}]}, {"smiles": "NC(=O)C1=CN([C@@H]2O[C@H](COP(=O)([O-])OP(=O)([O-])OC[C@H]3O[C@@H](n4cnc5c(N)ncnc54)[C@H](OP(=O)([O-])[O-])[C@@H]3O)[C@@H](O)[C@H]2O)C=CC1.[Na+].[Na+].[Na+].[Na+]", "note": "[NADPH tetrasodium]", "values": [{"measurement": "Z Score", "setting": "[8]", "result": 0.3021}, {"measurement": "Z score", "setting": "[1]", "result": 0.302}, {"measurement": "Activity", "setting": "[6]", "result": "no"}]}, {"smiles": "COc1ccccc1N1CCN(CCCCN2C(=O)c3ccccc3C2=O)CC1", "note": "[NAN-190 hydrobromide]", "values": [{"measurement": "Z Score", "setting": "LOPAC library screen at 3 μM, secondary neurosphere cultures, MTT", "result": "−0.6186"}, {"measurement": "Z score", "setting": "[1]", "result": "−0.619"}, {"measurement": "Activity", "setting": "[6]", "result": "no"}]}, {"smiles": "CCCN(CC1CC1)c1nc(C)nc(Nc2c(Cl)cc(Cl)cc2Cl)c1Cl", "note": "[NBI 27914]", "values": [{"measurement": "Z Score", "result": 0.1345}, {"measurement": "Z score", "setting": "[1]", "result": 0.134}, {"measurement": "Activity", "setting": "[5]", "result": "no"}]}, {"smiles": "NS(=O)(=O)c1cccc2c1c([N+](=O)[O-])cc1nc([O-])c([O-])nc12.[Na+].[Na+]", "note": "[NBQX disodium]", "values": [{"measurement": "Z Score", "setting": "[3]", "result": "−1.675"}, {"measurement": "Z score", "setting": "[1]", "result": "−1.675"}, {"measurement": "Activity", "setting": "[7]", "result": "no"}]}, {"smiles": "O=C(O)/C=C1\\CCCc2ccccc2C1O", "note": "(stereo not drawn) [NCS-382]", "values": [{"measurement": "Z Score", "result": "−1.733"}, {"measurement": "Z score", "setting": "[1]", "result": "−1.733"}, {"measurement": "Activity", "setting": "[6]", "result": "no"}]}, {"smiles": "O=C(Nc1cc(C(=O)Nc2ccc(S(=O)(=O)[O-])cc2S(=O)(=O)[O-])cc(C(=O)Nc2ccc(S(=O)(=O)[O-])cc2S(=O)(=O)[O-])c1)Nc1cc(C(=O)Nc2ccc(S(=O)(=O)[O-])cc2S(=O)(=O)[O-])cc(C(=O)Nc2ccc(S(=O)(=O)[O-])cc2S(=O)(=O)[O-])c1.[Na+].[Na+].[Na+].[Na+].[Na+].[Na+].[Na+].[Na+]", "note": "[NF449 octasodium salt]", "values": [{"measurement": "Z Score", "result": 1.851}, {"measurement": "Z score", "setting": "[1]", "result": 1.851}, {"measurement": "Activity", "setting": "[6]", "result": "no"}]}]}
